{"source": "patent US20200397807A1", "about": "“NICOTINYL RIBOSIDE COMPOUNDS AND THEIR USES” (MitoPower, LLC, priority 2019, published 2020)", "key": {"[1]": {"tested_on": "HepG2 cells", "assay": "Lactate released into the media", "assay_type": "cell-based"}, "[2]": {"tested_on": "HepG2 cells", "assay": "Glucose concentration in the media", "assay_type": "cell-based"}, "[3]": {"tested_on": "HepG2 cells"}, "[4]": {"tested_on": "HepG2 cells", "remark": "listed apart in the source"}, "[5]": {"conditions": "led to fatally high body temperature; cited from earlier work"}, "[6]": {"tested_on": "Jurkat cells", "assay": "Total cellular NAD^+ level after MNNG-induced depletion (NAD/NADH Glo assay)", "assay_type": "cell-based", "conditions": "for % NAD^+ Repletion: MNNG 100 μM, compound 1 mM; for increase of NAD^+ level: 100 μM MNNG 30 min, wash, NR 100 μM or/and olaparib 5 nM 3.5 hr"}, "[7]": {"tested_on": "HepG2 cells", "assay": "Total cellular NAD^+ level after MNNG-induced depletion (NAD/NADH Glo assay)", "assay_type": "cell-based", "conditions": "MNNG 100 μM, compound 1 mM"}, "[8]": {"tested_on": "HepG2 cells", "assay": "MNNG-induced cytotoxicity / cytoprotection (CellTiter-Blue Cell Viability Assay)", "assay_type": "cell-based", "conditions": "MNNG 600 μM, compound 1 mM"}, "[9]": {"tested_on": "Jurkat cells", "conditions": "MNNG 100 μM, compound 1 mM"}, "[10]": {"tested_on": "Jurkat cells", "assay": "NAD^+ assay (total cellular NAD^+ by HPLC/LCMS), with or without MNNG", "conditions": "Jurkat not treated with MNNG; NRH vs. NR 100 μM; 4 hr"}, "[11]": {"conditions": "4 g of oral NTZ; healthy adults; cited from earlier work"}}, "note": "Where a name gives a salt, the structure may show the parent alone. Read-outs that look alike come from different tables or passages of the source."}
{"smiles": "O=[N+]([O-])c1ccc(O)c([N+](=O)[O-])c1", "note": "[DNP, 2,4-Dinitrophenol]", "values": [{"measurement": "concentration of lactate released into the media", "setting": "[1]", "value": "markedly increased"}, {"measurement": "concentration of glucose in the media", "setting": "[2]", "value": "significantly reduced"}, {"measurement": "% viability of HepG2 cells", "setting": "[3]", "value": "significantly reduced"}, {"measurement": "activity of lactate dehydrogenase (LDH) released into the media", "setting": "[4]", "value": "markedly increased"}, {"measurement": "dose causing excessive systemic uncoupling, fold greater than minimum effective dose for reducing body weight", "setting": "[5]", "value": "3-10 fold"}]}
{"smiles": "NC(=O)c1ccc[n+]([C@@H]2O[C@H](COC(=O)CCC(=O)O)[C@@H](O)[C@H]2O)c1", "note": "[MP-42, 3-Carboxamide-1-((2R,3R,4S,5R)-5-(((3-carboxypropanoyl)oxy)methyl)-3,4-dihydroxytetrahydrofuran-2-yl)pyridin-1-ium Trifluoroacetate]", "values": [{"measurement": "% NAD^+ Repletion", "setting": "[6]", "value": 8.2, "unit": "%"}, {"measurement": "% NAD^+ Repletion", "setting": "[7]", "value": 23.7, "unit": "%"}, {"measurement": "% Cytoprotection", "setting": "[8]", "value": 9.9, "unit": "%"}, {"measurement": "% Cytoprotection", "setting": "[9]", "value": 4.5, "unit": "%"}]}
{"smiles": "COC(=O)CCC(=O)OC[C@H]1O[C@@H]([n+]2cccc(C(N)=O)c2)[C@H](O)[C@@H]1O", "note": "[MP-43, 3-Carboxamide-1-((2R,3R,4S,5R)-3,4-dihydroxy-5-(((4-methoxy-4-oxobutanoyl)oxy)methyl)tetrahydrofuran-2-yl)pyridin-1-ium Trifluoroacetate]", "values": [{"measurement": "% NAD^+ Repletion", "setting": "[6]", "value": 12.9, "unit": "%"}, {"measurement": "% NAD^+ Repletion", "setting": "[7]", "value": 31.1, "unit": "%"}, {"measurement": "% Cytoprotection", "setting": "[8]", "value": 5.7, "unit": "%"}, {"measurement": "% Cytoprotection", "setting": "[9]", "value": 6.3, "unit": "%"}]}
{"smiles": "NC(=O)c1ccc[n+]([C@@H]2O[C@H](CO)[C@@H](O)[C@H]2O)c1", "note": "[NR, nicotinamide riboside, reference compound]", "values": [{"measurement": "increase of NAD^+ level", "setting": "[6]", "value": 43, "unit": "%"}]}
{"smiles": "NC(=O)C1=CN([C@@H]2O[C@H](CO)[C@@H](O)[C@H]2O)C=CC1", "note": "[NRH]", "values": [{"measurement": "concentration of lactate released into the media", "setting": "[1]; 50 μM DNP, 100 μM NRH or both, 4 hr, versus untreated, FIG. 28", "value": "did not significantly affect"}, {"measurement": "concentration of glucose in the media", "setting": "[2]; 50 μM DNP, 100 μM NRH or both, 4 hr, versus untreated, FIG. 29", "value": "did not significantly affect"}, {"measurement": "NAD^+ level, NRH alone versus NR alone", "setting": "[10]", "value": "markedly higher NAD^+ level than NR alone"}]}
{"smiles": "CC(=O)Oc1ccccc1C(=O)Nc1ncc([N+](=O)[O-])s1", "note": "[NTZ, nitazoxanide]", "values": [{"measurement": "adverse effect", "setting": "[11]", "value": "does not cause any significant adverse effect"}]}
{"smiles": "O=C(c1cc(Cc2n[nH]c(=O)c3ccccc23)ccc1F)N1CCN(C(=O)C2CC2)CC1", "note": "[olaparib, reference compound]", "values": [{"measurement": "increase of NAD^+ level", "setting": "[6]", "value": 8, "unit": "%"}]}
